Patent publication US6737383B1, “Herbicidal oxadiazolidines” (priority 1999, dated 2004)

Assays:
cocklebur = experiment: Test B pre/postemergence cocklebur; type: in vivo, Xanthium strumarium
Summary of the method: (§1)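 Test chemicals in a non-phytotoxic solvent mixture with surfactant were sprayed preemergence onto planted seeds and postemergence onto plants 2 to 18 cm tall (1- to 4-leaf stage). After twelve to sixteen days in a greenhouse, injury was visually rated against untreated controls from 0 (no effect) to 10 (complete control).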

velvetleaf = experiment: Test B pre/postemergence velvetleaf; type: in vivo, Abutilon theophrasti
Summary of the method: as §1

duck salad = experiment: Test B flood test duck salad; type: in vivo, Heteranthera limosa
Summary of the method: (§2)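 Read-out is a visual response score from 0 (no effect) to 10 (complete control), assigned by comparison with untreated controls. Treatment was applied at the 2-leaf stage, and plants stayed in the greenhouse for twelve to sixteen days before scoring.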

purple nutsedge = experiment: Test B pre/postemergence purple nutsedge; type: in vivo, Cyperus rotundus
Summary of the method: as §1

sugar beet = experiment: Test B pre/postemergence sugar beet; type: in vivo, Beta vulgaris
Summary of the method: as §1

soybean = experiment: Test B pre/postemergence soybean; type: in vivo, Glycine max
Summary of the method: as §1

crabgrass = experiment: Test B pre/postemergence crabgrass; type: in vivo, Digitaria sanguinalis
Summary of the method: as §1

wheat = experiment: Test B pre/postemergence wheat; type: in vivo, Triticum aestivum
Summary of the method: as §1

surinam grass = experiment: Test B pre/postemergence surinam grass; type: in vivo, Brachiaria decumbens
Summary of the method: as §1

rice = experiment: Test B flood test rice; type: in vivo, Oryza sativa
Summary of the method: as §2

wild oat = experiment: Test B pre/postemergence wild oat; type: in vivo, Avena fatua
Summary of the method: as §1

bedstraw = experiment: Test B pre/postemergence bedstraw; type: in vivo, Galium aparine; conditions: Preemergence
Summary of the method: as §1

blackgrass = experiment: Test B pre/postemergence blackgrass; type: in vivo, Alopecurus myosuroides
Summary of the method: as §1

pigweed = experiment: Test B pre/postemergence pigweed; type: in vivo, Amaranthus retroflexus
Summary of the method: as §1

giant foxtail = experiment: Test B pre/postemergence giant foxtail; type: in vivo, Setaria faberii
Summary of the method: as §1

corn = experiment: Test B pre/postemergence corn; type: in vivo, Zea mays
Summary of the method: as §1

[1] = Postemergence, Rate 62 g/ha, scale 0 to 10, 0 is no effect, 10 is complete control
[2] = Postemergence, Rate 125 g/ha, scale of 0 to 10 where 0 is no effect and 10 is complete control
[3] = Postemergence, Rate 250 g/ha, scale of 0 to 10, 0 is no effect, 10 is complete control
[4] = Preemergence, Rate 62 g/ha, scale of 0 to 10 where 0 is no effect and 10 is complete control
[5] = Preemergence, Rate 125 g/ha, scale of 0 to 10 where 0 is no effect and 10 is complete control
[6] = Preemergence, Rate 250 g/ha, scale 0 to 10 (0 no effect, 10 complete control)
[7] = Preemergence, Rate 500 g/ha, scale of 0 to 10 where 0 is no effect and 10 is complete control
[8] = Rate 500 g/ha, Postemergence, scale 0 to 10, 0 is no effect, 10 is complete control
[9] = Rate 62 g/ha, flood test species, Pre-emergence, visual evaluation after twelve to sixteen days
[10] = Rate 125 g/ha, under heading Pre-emergence, flood test species, visual evaluation after twelve to sixteen days
[11] = Rate 250 g/ha, Pre-emergence (flood test species), scale 0 to 10, 0 is no effect, 10 is complete control
[12] = Rate 500 g/ha, Pre-emergence section of Table B, 0 to 10 scale (0 no effect, 10 complete control)

C=C(Cn1c(=O)on(C(=O)N(c2ccccc2)C(C)C)c1=O)C(C)C [Compound 649]
7: Giant foxtail plant response rating (giant foxtail; [8])
1: Crabgrass plant response rating (crabgrass; [5])
0: Plant response rating, Cocklebur (cocklebur; [1]) | Cocklebur plant response rating (cocklebur; [2]) | Cocklebur plant response rating (cocklebur; [3]) | Cocklebur plant response rating (cocklebur; [4]) | Cocklebur plant response rating (cocklebur; [5]) | Plant response rating, Cocklebur (cocklebur; [6]) | Plant response rating, Cocklebur (cocklebur; [7]) | Plant response rating, Velvetleaf (velvetleaf; [1]) | Velvetleaf plant response rating (velvetleaf; [2]) | Velvetleaf plant response rating (velvetleaf; [4]) | Velvetleaf plant response rating (velvetleaf; [5]) | Plant response rating, Velvetleaf (velvetleaf; [6]) | Plant response rating, Velvetleaf (velvetleaf; [7]) | Velvetleaf plant response rating (velvetleaf; [8]) | Plant response rating, Ducksalad (0 to 10 scale, 0 is no effect, 10 is complete control) (duck salad; [9]) | Ducksalad plant response rating (0 to 10 scale, 0 is no effect, 10 is complete control) (duck salad; [10]) | Ducksalad plant response rating (duck salad; [11]) | Ducksalad plant response rating (duck salad; [12]) | Plant response rating, Nutsedge (purple nutsedge; [1]) | Nutsedge plant response rating (purple nutsedge; [2]) | Nutsedge plant response rating (purple nutsedge; [4]) | Nutsedge plant response rating (purple nutsedge; [5]) | Plant response rating, Nutsedge (purple nutsedge; [6]) | Plant response rating, Nutsedge (purple nutsedge; [7]) | Nutsedge plant response rating (purple nutsedge; [8]) | Plant response rating, Sugarbeets (sugar beet; [1]) | Sugarbeets plant response rating (sugar beet; [2]) | Sugarbeets plant response rating (sugar beet; [5]) | Plant response rating, Sugarbeets (sugar beet; [6]) | Plant response rating, Sugarbeets (sugar beet; [7]) | Sugarbeets plant response rating (sugar beet; [8]) | Soybean plant response rating (soybean; [4]) | Soybean plant response rating (soybean; [5]) | Plant response rating, Soybean (soybean; [6]) | Plant response rating, Soybean (soybean; [7]) | Plant response rating, Crabgrass (crabgrass; [1]) | Crabgrass plant response rating (crabgrass; [4]) | Plant response rating, Wheat (wheat; [1]) | Wheat plant response rating (wheat; [2]) | Wheat plant response rating (wheat; [4]) | Wheat plant response rating (wheat; [5]) | Plant response rating, Wheat (wheat; [6]) | Plant response rating, Wheat (wheat; [7]) | Wheat plant response rating (wheat; [8]) | Plant response rating, B. signalgrass (surinam grass; [1]) | Plant response rating, B. signalgrass (surinam grass; [2]) | B. signalgrass plant response rating (surinam grass; [3]) | B. signalgrass plant response rating (surinam grass; [4]) | B. signalgrass plant response rating (surinam grass; [5]) | Plant response rating, B. signalgrass (surinam grass; [6]) | Plant response rating, B. signalgrass (surinam grass; [7]) | B. signalgrass plant response rating (surinam grass; [8]) | Plant response rating, Rice (0 to 10 scale, 0 is no effect, 10 is complete control) (rice; [9]) | Rice plant response rating (0 to 10 scale, 0 is no effect, 10 is complete control) (rice; [10]) | Rice plant response rating (rice; [11]) | Rice plant response rating (rice; [12]) | Plant response rating, Wild oats (wild oat; [1]) | Wild oats plant response rating (wild oat; [2]) | Wild oats plant response rating (wild oat; [4]) | Wild oats plant response rating (wild oat; [5]) | Plant response rating, Wild oats (wild oat; [6]) | Plant response rating, Wild oats (wild oat; [7]) | Wild oats plant response rating (wild oat; [8]) | Bedstraw plant response rating (bedstraw; Rate 62 g/ha, scale of 0 to 10 where 0 is no effect and 10 is complete control) | Bedstraw plant response rating (bedstraw; Rate 125 g/ha, scale of 0 to 10 where 0 is no effect and 10 is complete control) | Plant response rating, Bedstraw (bedstraw; Rate 250 g/ha, scale 0 to 10 (0 no effect, 10 complete control)) | Plant response rating, Bedstraw (bedstraw; Rate 500 g/ha, scale of 0 to 10 where 0 is no effect and 10 is complete control) | Plant response rating, Blackgrass (blackgrass; [1]) | Blackgrass plant response rating (blackgrass; [2]) | Blackgrass plant response rating (blackgrass; [3]) | Blackgrass plant response rating (blackgrass; [4]) | Blackgrass plant response rating (blackgrass; [5]) | Plant response rating, Blackgrass (blackgrass; [6]) | Plant response rating, Blackgrass (blackgrass; [7]) | Blackgrass plant response rating (blackgrass; [8]) | Plant response rating, Redroot pigweed (pigweed; [1]) | Redroot pigweed plant response rating (pigweed; [2]) | Redroot pigweed plant response rating (pigweed; [4]) | Redroot pigweed plant response rating (pigweed; [5]) | Plant response rating, Redroot pigweed (pigweed; [6]) | Plant response rating, Redroot pigweed (pigweed; [7]) | Redroot pigweed plant response rating (pigweed; [8]) | Plant response rating, Giant foxtail (giant foxtail; [1]) | Giant foxtail plant response rating (giant foxtail; [4]) | Plant response rating, Corn (corn; [1]) | Corn plant response rating (corn; [2]) | Corn plant response rating (corn; [3]) | Corn plant response rating (corn; [4]) | Corn plant response rating (corn; [5]) | Plant response rating, Corn (corn; [6]) | Plant response rating, Corn (corn; [7]) | Corn plant response rating (corn; [8])
5: Plant response rating, Crabgrass (crabgrass; [6])
9: Plant response rating, Crabgrass (crabgrass; [7]) | Plant response rating, Giant foxtail (giant foxtail; [6]) | Plant response rating, Giant foxtail (giant foxtail; [7])
2: Cocklebur plant response rating (cocklebur; [8]) | Plant response rating, Soybean (soybean; [1]) | Soybean plant response rating (soybean; [2]) | Crabgrass plant response rating (crabgrass; [2]) | Giant foxtail plant response rating (giant foxtail; [2]) | Giant foxtail plant response rating (giant foxtail; [3])
3: Soybean plant response rating (soybean; [8])
